Source: patent publication US20250382301A1 (Arizona Board of Regents on Behalf of the University of …, priority 2022, published 2025)

Test system: WNT signaling (TopGFP reporter in Human Colonic Epithelial Cells (HCEC))
Assay: WNT Reporter Assay (TopGFP reporter)
Type: cell-based
Conditions: Homo sapiens, stimulated with 10 μM CHIR99021, 24 hours, TopGFP/mCherry
Protocol: WNT Reporter Assay: Human Colonic Epithelial Cells (HCEC) were cultured using 1×DMEM supplemented with 1% penicillin/streptomycin, 1% Glutamax, and 10% fetal bovine serum in 5% CO2 at 37° C. These cells were previously engineered to express the TopGFP reporter (Addgene #24304) using second generation lentiviral techniques. For the Wnt reporter assay, cells were seeded at 2000 cells per well in a 384-well black screenstar imaging microplates (Greiner #781866) and allowed to adhere overnight. The following day cells were stimulated to induce the Wnt pathway using 10 μM CHIR99021 (Selleck #S1263). […] Cells were incubated for 24 hours before fixing for 30 minutes with 4% paraformaldehyde/sucrose solution. Cells were permeabilized with 0.1% triton-x in PBS for 10 minutes and stained for DAPI for 30 minutes. Plates were imaged on a Nikon Ti2 Eclipse fluorescent microscope for DAPI, GFP, and mCherry. Using Nikon Elements software for analysis, nuclei were segmented based on DAPI and mean object intensity per cell for both TopGFP and the internal control (mCherry) was measured. To calculate the amount of Wnt activity, we took the mean intensity of TopGFP and divided it by the mean intensity of mCherry per cell to normalize individual cells. Curves and EC50s were plotted and calculated using Graphpad Prism software.

Row | EC50 [nM] | SMILES
1 | > 1000 | Nc1cc(-c2ccc3ncnc(N4CCN(C(=O)c5ccccc5F)CC4)c3c2)ccn1 [Compound 46, (4-(6-(2-aminopyridin-4-yl)quinazolin-4-yl)piperazin-1-yl)(2-fluorophenyl)methanone]
2 | > 1000 | COc1cc2c(cc1OC)CN(c1ncnc3ccc(-c4cnn(C)c4)cc13)CC2 [Compound 47, 4-(6,7-dimethoxy-3,4-dihydroisoquinolin-2(1H)-yl)-6-(1-methyl-1H-pyrazol-4-yl)quinazoline]
3 | 100 to 1000 | Nc1cc(-c2ccc3ncnc(N4CCC(c5ccccc5F)CC4)c3c2)ccn1 [Compound 48, 4-(4-(4-(2-fluorophenyl)piperidin-1-yl)quinazolin-6-yl)pyridin-2-amine]
4 | < 100 | Fc1ccc(CN2CCN(c3ncnc4ccc(-c5c[nH]c6ncccc56)cc34)CC2)cc1 [Compound 49, 4-(4-(4-fluorobenzyl)piperazin-1-yl)-6-(1H-pyrrolo[2,3-b]pyridin-3-yl)quinazoline]
5 | < 100 | Nc1cc(-c2ccc3ncnc(N4CCN(c5nccs5)CC4)c3c2)ccn1 [Compound 50, 4-(4-(4-(thiazol-2-yl)piperazin-1-yl)quinazolin-6-yl)pyridin-2-amine]
6 | 100 to 1000 | Nc1cc(-c2ccc3ncnc(N4CCC(c5ccccc5)CC4)c3c2)ccn1 [Compound 51, 4-(4-(4-phenylpiperidin-1-yl)quinazolin-6-yl)pyridin-2-amine]
7 | < 100 | Nc1cc(-c2ccc3nccc(N4CCN(c5ccccc5F)CC4)c3n2)ccn1 [Compound 52, 4-(8-(4-(2-fluorophenyl)piperazin-1-yl)-1,5-naphthyridin-2-yl)pyridin-2-amine]
8 | < 100 | Nc1cc(-c2ccc3nccc(N4CCN(c5ccccc5)CC4)c3n2)ccn1 [Compound 53, 4-(8-(4-phenylpiperazin-1-yl)-1,5-naphthyridin-2-yl)pyridin-2-amine]
9 | > 1000 | Nc1cc(-c2ccc3ncnc(N4C[C@H]5C[C@@H]4CN5c4ccccn4)c3c2)ccn1 [Compound 55, 4-(4-((1R,4R)-5-(pyridin-2-yl)-2,5-diazabicyclo[2.2.1]heptan-2-yl)quinazolin-6-yl)pyridin-2-amine]
10 | > 1000 | Nc1cc(-c2ccc3ncnc(N4CCCN(c5ccccn5)CC4)c3c2)ccn1 [Compound 56, 4-(4-(4-(pyridin-2-yl)-1,4-diazepan-1-yl)quinazolin-6-yl)pyridin-2-amine]
11 | < 100 | Fc1cccnc1N1CCN(c2ncnc3ccc(-c4c[nH]c5ncccc45)cc23)CC1 [Compound 57, 4-(4-(3-fluoropyridin-2-yl)piperazin-1-yl)-6-(1H-pyrrolo[2,3-b]pyridin-3-yl)quinazoline]
12 | < 100 | O=c1ccccn1C1CCN(c2ncnc3ccc(-c4c[nH]c5ncccc45)cc23)CC1 [Compound 58, 1-(1-(6-(1H-pyrrolo[2,3-b]pyridin-3-yl)quinazolin-4-yl)piperidin-4-yl)pyridin-2(1H)-one]
13 | < 100 | O=c1ccccn1C1CCN(c2ncnc3ccc(-c4cn[nH]c4)cc23)CC1 [Compound 59, 1-(1-(6-(1H-pyrazol-4-yl)quinazolin-4-yl)piperidin-4-yl)pyridin-2(1H)-one]
14 | > 1000 | Cc1n[nH]cc1-c1ccc2ncnc(N3CCN(c4ccccn4)CC3)c2c1 [Compound 60, 6-(3-methyl-1H-pyrazol-4-yl)-4-(4-(pyridin-2-yl)piperazin-1-yl)quinazoline]
15 | < 100 | Nc1cc(-c2ccc3ncnc(N4CCN(c5ncccc5F)CC4)c3c2)ccn1 [Compound 61, 4-(4-(4-(3-fluoropyridin-2-yl)piperazin-1-yl)quinazolin-6-yl)pyridin-2-amine]
16 | 100 to 1000 | Nc1cc(-c2ccc3ncnc(N4CCC(n5ccccc5=O)CC4)c3c2)ccn1 [Compound 62, 1-(1-(6-(2-aminopyridin-4-yl)quinazolin-4-yl)piperidin-4-yl)pyridin-2(1H)-one]
17 | 100 to 1000 | Nc1cc(-c2ccc3ncnc(N4CCC(c5ccc(F)cc5F)CC4)c3c2)ccn1 [Compound 63, 4-(4-(4-(2,4-difluorophenyl)piperidin-1-yl)quinazolin-6-yl)pyridin-2-amine]
18 | 100 to 1000 | Nc1cc(-c2ccc3ncnc(N4CCC5(CCN(c6ccccn6)CC5)C4)c3c2)ccn1 [Compound 64, 4-(4-(8-(pyridin-2-yl)-2,8-diazaspiro[4.5]decan-2-yl)quinazolin-6-yl)pyridin-2-amine]
19 | < 100 | Nc1cc(-c2ccc3ncnc(N4CCC5(CCN(c6ccccn6)C5)CC4)c3c2)ccn1 [Compound 65, 4-(4-(2-(pyridin-2-yl)-2,8-diazaspiro[4.5]decan-8-yl)quinazolin-6-yl)pyridin-2-amine]
20 | 100 to 1000 | Nc1cc(-c2ccc3ncnc(N4C[C@H]5CN(c6ccccn6)C[C@H]5C4)c3c2)ccn1 [Compound 66, 4-(4-((3aR,6aS)-5-(pyridin-2-yl)hexahydropyrrolo[3,4-c]pyrrol-2(1H)-yl)quinazolin-6-yl)pyridin-2-amine]
21 | < 100 | Nc1cc(-c2ccc3ncnc(N4CCN(c5ccccc5F)C(=O)C4)c3n2)ccn1 [Compound 67, 4-(6-(2-aminopyridin-4-yl)pyrido[3,2-d]pyrimidin-4-yl)-1-(2-fluorophenyl)piperazin-2-one]

Row | SMILES | EC50 [nM]
22 | Nc1cc(-c2ccc3ncnc(N4[C@@H]5CC[C@H]4CN(c4ccccn4)C5)c3c2)ccn1 [Compound 54, 4-(4-((1R,5S)-3-(pyridin-2-yl)-3,8-diazabicyclo[3.2.1]octan-8-yl)quinazolin-6-yl)pyridin-2-amine] | 100 to 1000
